Earlier results on one molecule are cited in patent US20070141027A1, “Non-lethal conditioning methods for conditioning a recipient for bone marrow transplantation” (UNIVERSITY OF LOUISVILLE RESEARCH FOUNDATION INC., priority 2003, published 2007).

The subject of the data set is mice. The conditions noted are these: reduced from 700 cGy TBI alone; CyP 200 mg/kg i.p. 2 days after BMT; ALG or anti-CD8 on day -3 added to it.

As to `O=P1(N(CCCl)CCCl)NCCCO1` (stereo not shown) [cyclophosphamide (CyP), cyclophosphamide], the “TBI dose for allogeneic marrow engraftment” value is recorded as 500 cGy.
